From article PMC8175490, “Validation of mathematical model with phosphate activation effect by batch (R)-phenylacetylcarbinol biotransformation process utilizing Candida tropicalis pyruvate decarboxylase in phosphate buffer” (Scientific Reports, 2021)

Biological target: T1, partially purified C. tropicalis TISTR 5350 pyruvate decarboxylase (PDC) (Candida tropicalis, UniProt C5MDS4)
T1 construct: gene CTRG_03826
Test: global fit of six-ODE model to batch PAC biotransformation progress curves (HPLC, enzymatic pyruvate assay)
Assay type: biochemical
Conditions: carboligation with benzaldehyde (30/36 and 100/120 mM benzaldehyde/pyruvate); 250 mM phosphate pH 7.0, 4 °C, 1 mM TPP, 1 mM MgSO4; partially purified enzyme; model-fitted affinity constant; sigmoidal
Description: global fit of six-ODE model to batch PAC biotransformation progress curves (HPLC, enzymatic pyruvate assay) on partially purified C. tropicalis TISTR 5350 pyruvate decarboxylase (PDC)

T1 sequence (C5MDS4 entry or part of it): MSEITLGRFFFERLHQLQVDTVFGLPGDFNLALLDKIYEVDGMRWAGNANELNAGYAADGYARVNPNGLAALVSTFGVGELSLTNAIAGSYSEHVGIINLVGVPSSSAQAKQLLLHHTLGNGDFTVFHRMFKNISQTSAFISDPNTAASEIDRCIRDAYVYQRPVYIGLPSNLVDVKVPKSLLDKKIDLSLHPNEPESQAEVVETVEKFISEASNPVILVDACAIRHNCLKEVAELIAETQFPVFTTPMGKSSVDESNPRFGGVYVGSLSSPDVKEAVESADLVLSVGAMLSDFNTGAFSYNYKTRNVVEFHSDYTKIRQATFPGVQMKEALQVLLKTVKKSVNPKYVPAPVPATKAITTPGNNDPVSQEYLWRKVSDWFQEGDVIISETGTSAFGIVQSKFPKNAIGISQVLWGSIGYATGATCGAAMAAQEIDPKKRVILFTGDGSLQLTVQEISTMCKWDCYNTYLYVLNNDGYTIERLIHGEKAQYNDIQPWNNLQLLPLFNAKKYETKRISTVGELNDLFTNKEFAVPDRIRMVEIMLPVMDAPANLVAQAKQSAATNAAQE

O=Cc1ccccc1 [B, benzaldehyde]
Optimized values: (1.01 ± 0.02) × 10^–4 mM^1−h
